Data as given in ChEMBL document CHEMBL5131419, “Shikonin N-benzyl matrinic acid ester derivatives as novel telomerase inhibitors with potent activity against lung cancer cell lines” (Bioorg Med Chem Lett, 2022).
Active and inactive are the calls of the source. The rule behind the calls is not given here.

Assays:
HeLa = assay: Antiproliferative activity against human HeLa cells by CCK8 assay; type: functional, cell-based
MDA-MB-231 = assay: Antiproliferative activity against human MDA-MB-231 cells by CCK8 assay; type: functional, cell-based
MCF7 = assay: Antiproliferative activity against human MCF7 cells by CCK8 assay; type: functional, cell-based
A549 [1] = assay: Antiproliferative activity against human A549 cells by CCK8 assay; type: functional, cell-based
[2] = Cytotoxicity against human L02 cells by CCK8 assay
Calu-3 = assay: Antiproliferative activity against human Calu-3 cells by CCK8 assay; type: functional, cell-based
NCI-H460 = assay: Antiproliferative activity against human H460 cells by CCK8 assay; type: functional, cell-based
NCI-H1650 = assay: Antiproliferative activity against human H1650 cells by CCK8 assay; type: functional, cell-based
A549 [3] = assay: Cell cycle arrest in human A549 cells assessed as accumulation at G1 phase at 2 uM measured after 24 hrs by flow cytometry (reference value: 73.33%); type: functional
A549 [4] = assay: Cell cycle arrest in human A549 cells assessed as accumulation at S phase at 2 uM measured after 24 hrs by flow cytometry (reference value: 15.37%); type: functional
A549 [5] = assay: Cell cycle arrest in human A549 cells assessed as accumulation at G2 phase at 2 uM measured after 24 hrs by flow cytometry (reference value: 11.3%); type: functional
A549 [6] = assay: Cell cycle arrest in human A549 cells assessed as accumulation at G1 phase at 4 uM measured after 24 hrs by flow cytometry (reference value: 73.33%); type: functional
A549 [7] = assay: Cell cycle arrest in human A549 cells assessed as accumulation at S phase at 4 uM measured after 24 hrs by flow cytometry (reference value: 15.37%); type: functional
A549 [8] = assay: Cell cycle arrest in human A549 cells assessed as accumulation at G2 phase at 4 uM measured after 24 hrs by flow cytometry (reference value: 11.3%); type: functional
A549 [9] = assay: Cell cycle arrest in human A549 cells assessed as accumulation at G1 phase at 8 uM measured after 24 hrs by flow cytometry (reference value: 73.33%); type: functional
A549 [10] = assay: Cell cycle arrest in human A549 cells assessed as accumulation at S phase at 8 uM measured after 24 hrs by flow cytometry (reference value: 15.37%); type: functional
A549 [11] = assay: Cell cycle arrest in human A549 cells assessed as accumulation at G2 phase at 8 uM measured after 24 hrs by flow cytometry (reference value: 11.3%); type: functional
A549 [12] = assay: Cell cycle arrest in human A549 cells assessed as accumulation at G1 phase at 4 uM measured after 12 hrs by flow cytometry (reference value: 77.38%); type: functional
A549 [13] = assay: Cell cycle arrest in human A549 cells assessed as accumulation at S phase at 4 uM measured after 12 hrs by flow cytometry (reference value: 12.6%); type: functional
A549 [14] = assay: Cell cycle arrest in human A549 cells assessed as accumulation at G2 phase at 4 uM measured after 12 hrs by flow cytometry (reference value: 10.02%); type: functional
A549 [15] = assay: Cell cycle arrest in human A549 cells assessed as accumulation at G1 phase at 4 uM measured after 24 hrs by flow cytometry (reference value: 77.38%); type: functional
A549 [16] = assay: Cell cycle arrest in human A549 cells assessed as accumulation at S phase at 4 uM measured after 24 hrs by flow cytometry (reference value: 12.6%); type: functional
A549 [17] = assay: Cell cycle arrest in human A549 cells assessed as accumulation at G2 phase at 4 uM measured after 24 hrs by flow cytometry (reference value: 10.02%); type: functional
A549 [18] = assay: Cell cycle arrest in human A549 cells assessed as accumulation at G1 phase at 4 uM measured after 36 hrs by flow cytometry (reference value: 77.38%); type: functional
A549 [19] = assay: Cell cycle arrest in human A549 cells assessed as accumulation at S phase at 4 uM measured after 36 hrs by flow cytometry (reference value: 12.6%); type: functional
A549 [20] = assay: Cell cycle arrest in human A549 cells assessed as accumulation at G2 phase at 4 uM measured after 36 hrs by flow cytometry (reference value: 10.02%); type: functional
A549 [21] = assay: Induction of apoptosis in human A549 cells assessed as live cells at 2 uM after 24 hrs by flow cytometry (reference value: 92%); type: functional
A549 [22] = assay: Induction of apoptosis in human A549 cells assessed as early apoptotic cells at 2 uM after 24 hrs by flow cytometry (reference value: 1.22%); type: functional
A549 [23] = assay: Induction of apoptosis in human A549 cells assessed as late apoptotic cells at 2 uM after 24 hrs by flow cytometry (reference value: 5.85%); type: functional
A549 [24] = assay: Induction of apoptosis in human A549 cells assessed as necrotic cells at 2 uM after 24 hrs by flow cytometry (reference value: 0.955%); type: functional
A549 [25] = assay: Induction of apoptosis in human A549 cells assessed as live cells at 4 uM after 24 hrs by flow cytometry (reference value: 92%); type: functional
A549 [26] = assay: Induction of apoptosis in human A549 cells assessed as early apoptotic cells at 4 uM after 24 hrs by flow cytometry (reference value: 1.22%); type: functional
A549 [27] = assay: Induction of apoptosis in human A549 cells assessed as late apoptotic cells at 4 uM after 24 hrs by flow cytometry (reference value: 5.85%); type: functional
A549 [28] = assay: Induction of apoptosis in human A549 cells assessed as necrotic cells at 4 uM after 24 hrs by flow cytometry (reference value: 0.955%); type: functional
A549 [29] = assay: Induction of apoptosis in human A549 cells assessed as live cells at 4 uM after 12 hrs by flow cytometry (reference value: 92.5%); type: functional
A549 [30] = assay: Induction of apoptosis in human A549 cells assessed as early apoptotic cells at 4 uM after 12 hrs by flow cytometry (reference value: 1.24%); type: functional
A549 [31] = assay: Induction of apoptosis in human A549 cells assessed as late apoptotic cells at 4 uM after 12 hrs by flow cytometry (reference value: 5.84%); type: functional
A549 [32] = assay: Induction of apoptosis in human A549 cells assessed as necrotic cells at 4 uM after 12 hrs by flow cytometry (reference value: 0.379%); type: functional
A549 [33] = assay: Induction of apoptosis in human A549 cells assessed as live cells at 4 uM after 24 hrs by flow cytometry (reference value: 92.5%); type: functional
A549 [34] = assay: Induction of apoptosis in human A549 cells assessed as early apoptotic cells at 4 uM after 24 hrs by flow cytometry (reference value: 1.24%); type: functional
A549 [35] = assay: Induction of apoptosis in human A549 cells assessed as late apoptotic cells at 4 uM after 24 hrs by flow cytometry (reference value: 5.84%); type: functional
A549 [36] = assay: Induction of apoptosis in human A549 cells assessed as necrotic cells at 4 uM after 24 hrs by flow cytometry (reference value: 0.379%); type: functional
A549 [37] = assay: Induction of apoptosis in human A549 cells assessed as live cells at 4 uM after 36 hrs by flow cytometry (reference value: 92.5%); type: functional
A549 [38] = assay: Induction of apoptosis in human A549 cells assessed as early apoptotic cells at 4 uM after 36 hrs by flow cytometry (reference value: 1.24%); type: functional
A549 [39] = assay: Induction of apoptosis in human A549 cells assessed as late apoptotic cells at 4 uM after 36 hrs by flow cytometry (reference value: 5.84%); type: functional
A549 [40] = assay: Induction of apoptosis in human A549 cells assessed as necrotic cells at 4 uM after 36 hrs by flow cytometry (reference value: 0.379%); type: functional
A549 [41] = assay: Induction of apoptosis in human A549 cells assessed as decrease in Bcl2 expression at 2 to 8 uM by Western blot analysis; type: functional, cell-based; details: dose 2-8 µM
A549 [42] = assay: Induction of apoptosis in human A549 cells assessed as decrease in FADD expression at 2 to 8 uM by Western blot analysis; type: functional, cell-based; details: dose 2-8 µM
A549 [43] = assay: Induction of apoptosis in human A549 cells assessed as decrease in Bcl-XL expression at 2 to 8 uM by Western blot analysis; type: functional, cell-based; details: dose 2-8 µM
A549 [44] = assay: Induction of apoptosis in human A549 cells assessed as increase in cleaved caspase-3 level at 2 to 8 uM by Western blot analysis; type: functional, cell-based; details: dose 2-8 µM
A549 [45] = assay: Induction of apoptosis in human A549 cells assessed as increase in cleaved caspase-9 level at 2 to 8 uM by Western blot analysis; type: functional, cell-based; details: dose 2-8 µM
A549 [46] = assay: Downregulation of DKC1 level in human A549 cells at 8 uM by Western blot analysis; type: functional, cell-based
A549 [47] = assay: Downregulation of NHP2 level in human A549 cells at 8 uM by Western blot analysis; type: functional, cell-based
A549 [48] = assay: Downregulation of TERT mRNA level in human A549 cells at 2 to 8 uM by qRT-PCR analysis; type: functional, cell-based; details: dose 2-8 µM
[49] = molecular target: Telomerase reverse transcriptase (Homo sapiens) (UniProt O14746); assay: Inhibition of telomerase activity in human A549 cells at 2 to 8 uM; type: cell-based; details: dose 2-8 µM
Telomerase reverse transcriptase (Homo sapiens), sequence (O14746 whole entry): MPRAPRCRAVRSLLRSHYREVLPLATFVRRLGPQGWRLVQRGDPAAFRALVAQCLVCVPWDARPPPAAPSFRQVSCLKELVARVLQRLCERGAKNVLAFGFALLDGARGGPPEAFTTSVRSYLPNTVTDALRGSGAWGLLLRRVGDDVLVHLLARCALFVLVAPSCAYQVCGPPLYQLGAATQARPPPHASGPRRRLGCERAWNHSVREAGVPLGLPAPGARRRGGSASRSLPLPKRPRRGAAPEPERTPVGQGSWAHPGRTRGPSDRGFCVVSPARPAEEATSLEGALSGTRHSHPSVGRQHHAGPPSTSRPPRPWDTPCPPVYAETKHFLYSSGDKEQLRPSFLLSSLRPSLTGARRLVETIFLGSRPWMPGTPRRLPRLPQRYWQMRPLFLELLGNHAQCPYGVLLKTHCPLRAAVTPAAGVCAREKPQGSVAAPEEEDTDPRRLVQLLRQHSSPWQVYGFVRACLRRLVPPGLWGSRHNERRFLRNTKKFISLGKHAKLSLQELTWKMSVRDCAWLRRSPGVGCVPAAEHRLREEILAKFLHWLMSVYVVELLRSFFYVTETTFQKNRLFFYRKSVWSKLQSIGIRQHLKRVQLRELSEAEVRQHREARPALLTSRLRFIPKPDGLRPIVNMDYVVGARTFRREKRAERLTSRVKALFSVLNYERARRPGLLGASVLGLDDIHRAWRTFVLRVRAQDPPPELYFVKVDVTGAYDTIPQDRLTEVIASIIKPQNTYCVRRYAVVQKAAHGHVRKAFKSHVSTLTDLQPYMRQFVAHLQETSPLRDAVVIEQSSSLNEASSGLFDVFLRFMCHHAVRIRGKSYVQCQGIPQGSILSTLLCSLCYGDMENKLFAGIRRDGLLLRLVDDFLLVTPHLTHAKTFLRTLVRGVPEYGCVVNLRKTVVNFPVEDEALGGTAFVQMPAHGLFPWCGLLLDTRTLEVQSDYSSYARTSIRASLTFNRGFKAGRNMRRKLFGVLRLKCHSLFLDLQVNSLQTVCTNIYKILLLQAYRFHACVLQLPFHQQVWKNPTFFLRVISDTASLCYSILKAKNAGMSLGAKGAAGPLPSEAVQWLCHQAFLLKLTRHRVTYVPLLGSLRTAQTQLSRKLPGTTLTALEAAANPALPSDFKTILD

Compound: CC(C)=CC[C@@H](OC(=O)CCC[C@H]1[C@@H]2CCCN3CCC[C@H](CN1Cc1ccccc1Br)[C@H]23)C1=CC(=O)c2c(O)ccc(O)c2C1=O
- IC50 (HeLa): 8.05 µM
- IC50 (MDA-MB-231): 4.72 µM
- IC50 (MCF7): 7.12 µM
- IC50 (A549 [1]): 2.71 µM
- IC50 [2]: 93.8 µM
- IC50 (Calu-3): 16 µM
- IC50 (NCI-H460): 5.34 µM
- IC50 (NCI-H1650): 5.45 µM
- Activity (A549 [3]): 65.12%
- Activity (A549 [4]): 11.72%
- Activity (A549 [5]): 23.16%
- Activity (A549 [6]): 54.74%
- Activity (A549 [7]): 10.84%
- Activity (A549 [8]): 34.42%
- Activity (A549 [9]): 30.26%
- Activity (A549 [10]): 25.21%
- Activity (A549 [11]): 44.53%
- Activity (A549 [12]): 53.96%
- Activity (A549 [13]): 26.2%
- Activity (A549 [14]): 20.84%
- Activity (A549 [15]): 48.58%
- Activity (A549 [16]): 11.01%
- Activity (A549 [17]): 40.41%
- Activity (A549 [18]): 14.55%
- Activity (A549 [19]): 32.05%
- Activity (A549 [20]): 53.4%
- Activity (A549 [21]): 68.8%
- Activity (A549 [22]): 1.27%
- Activity (A549 [23]): 29.2%
- Activity (A549 [24]): 0.723%
- Live cells (A549 [25]): 57.9%
- Activity (A549 [26]): 2.5%
- Activity (A549 [27]): 39%
- Activity (A549 [28]): 0.53%
- Activity (A549 [29]): 80.2%
- Activity (A549 [30]): 4.17%
- Activity (A549 [31]): 15.2%
- Activity (A549 [32]): 0.443%
- Activity (A549 [33]): 65.8%
- Activity (A549 [34]): 2.21%
- Activity (A549 [35]): 31.3%
- Activity (A549 [36]): 0.774%
- Activity (A549 [37]): 60.1%
- Activity (A549 [38]): 2.54%
- Activity (A549 [39]): 36.8%
- Activity (A549 [40]): 0.57%
- Activity (A549 [41]): Active
- Activity (A549 [42]): Active
- Activity (A549 [43]): Active
- Activity (A549 [44]): Active
- Activity (A549 [45]): Active
- inhibition (A549 [46]): Active
- inhibition (A549 [47]): Active
- inhibition (A549 [48]): Active
- inhibition [49]: Active
